Results published in article PMC9525273 (Nature Communications, 2022).
Several values for one entry are separate records, joined by “and”; a condition that tells them apart may be missing. Equal entries are not always repeated. Where two headings read alike, the source gives them in different places.

How the values were obtained:
[1] = test system: Dd2-B2 parasites; assay: P. falciparum proliferation assay (72 h, flow cytometry, SYBR Green I/MitoTracker); format: cell-based; details: Plasmodium falciparum, DD2, read-out: IC50 value
Protocol: (§1) Two types of parasite proliferation assays were employed in this study, with both yielding highly consistent results. For the NF54-based lines and Dd2-B2-PfATP4^G358S and its parent, assays were initiated with cultures containing predominantly ring-stage parasites with a parasitaemia of 0.3% and a haematocrit of 1%. All assays using NF54 were performed in culture media containing 10% O + human serum. The duration of the assays was 72 h and the concentration of DMSO was <0.5% (v/v). Serial dilutions of the test compounds were performed using a Tecan D300e digital dispenser, with parasite cultures added manually. Parasite survival was assessed by flow cytometry on an Intellicyt iQue3 (Essen Bioscience), with 1× SYBR Green I (Invitrogen) and 200 nM MitoTracker Deep Red FM (Invitrogen) used to stain the nucleus and the mitochondria in live parasites, respectively. The gating strategy used to quantify parasite survival, performed using FlowJo version 10 (FlowJo LLC.), is illustrated in Supplementary Fig. 9. IC50 and IC90 values were calculated by linear interpolation of the dose-response data.

[2] = test system: Dd2-B2-PfATP4^G358S parasites; assay: as above; format: cell-based; details: Plasmodium falciparum; Dd2-B2-PfATP4G358S; mean ± SEM
Protocol: as §1

[3] = test system: parasite lines with a G358S mutation in PfATP4; assay: P. falciparum proliferation assays, statements on all lines with the G358S mutation; format: cell-based, Plasmodium falciparum; details: Plasmodium falciparum; all parasite lines with a G358S mutation in PfATP4 tested in this study
Outline: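 Ring-stage P. falciparum cultures (0.3% parasitaemia, 1% haematocrit; NF54 in 10% O+ human serum) were exposed 72 h with DMSO <0.5% (v/v), and survival was read by flow cytometry using SYBR Green I plus MitoTracker Deep Red. IC50/IC90 came from linear interpolation. Other lines started at 1% parasitaemia/1% haematocrit with fluorescent DNA-dye readout.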

[4] = test system: isolated Dd2-Polδ P. falciparum trophozoites; assay: [Na+]cyt measurement (SBFI), Na+ dysregulation; format: cell-based, Plasmodium falciparum; design: Final [Na+]cyt reached: unit not given here; details: for Final [Na+]cyt reached: Dd2-Polδ; for IC50: Plasmodium falciparum
Protocol: (§2) The ratio of the fluorescence intensity recorded at 340 nm and 380 nm (with an emission wavelength of 515 nm) was converted to [Na^+]cyt using a calibration procedure that entailed suspending parasites in solutions of varying [Na^+] containing ionophores. Fluorescence measurements and calibrations were performed at 37 °C, either with individual 1 mL suspensions using a PerkinElmer LS 50B fluorescence spectrometer (for resting [Na^+]cyt measurements for which the data are shown in Supplementary Fig. 7) or in 96-well plates using a Tecan Infinite M1000 PRO plate reader with i-control (version 1.12) software (all other [Na^+]cyt measurements).

[5] = test system: isolated Dd2-Polδ-PfATP4^G358S P. falciparum trophozoites; assay: [Na+]cyt measurement (SBFI), Na+ dysregulation; format: cell-based, Plasmodium falciparum; design: Final [Na+]cyt reached: unit not given here; details: Dd2-Polδ-PfATP4G358S
Protocol: as §2

[6] = [(+)-SJ733] 156.3 nM, single experiments
[7] = [(+)-SJ733] 312.5 nM, single experiments
[8] = [(+)-SJ733] 625 nM, single experiments
[9] = [(+)-SJ733] 2500 nM, single experiments
[10] = [(+)-SJ733] 5000 nM, single experiments
[11] = [(+)-SJ733] 10000 nM, single experiments

## N#Cc1cc(NC(=O)[C@H]2c3ccccc3C(=O)N(CC(F)(F)F)[C@@H]2c2cccnc2)ccc1F [(+)-SJ733]
[1]
  IC50: 122 ± 7 nM
[2]
  IC50: 23000 ± 3200 nM
[3]
  IC50: > 9000 nM
[4]; [(+)-SJ733] 9.8 nM, MEAN
  Final [Na+]cyt reached: 24.0
[4]; [(+)-SJ733] 19.5 nM, MEAN
  Final [Na+]cyt reached: 33.0
[4]; [(+)-SJ733] 39.1 nM, MEAN
  Final [Na+]cyt reached: 53.8
[4]; [(+)-SJ733] 78.1 nM, MEAN
  Final [Na+]cyt reached: 78.4
[4]; [(+)-SJ733] 156.3 nM, MEAN
  Final [Na+]cyt reached: 97.5
[4]; [6]
  Final [Na+]cyt reached: 122.9 and 77.5 and 89.5 and 99.9
[4]; [(+)-SJ733] 312.5 nM, MEAN
  Final [Na+]cyt reached: 102.1
[4]; [7]
  Final [Na+]cyt reached: 131.1 and 85.2 and 96.4 and 95.7
[4]; [(+)-SJ733] 625 nM, MEAN
  Final [Na+]cyt reached: 112.5
[4]; [8]
  Final [Na+]cyt reached: 132.7 and 104.6 and 109.2 and 103.6
[4]; [(+)-SJ733] 2500 nM, MEAN
  Final [Na+]cyt reached: 112.4
[4]; [9]
  Final [Na+]cyt reached: 123.5 and 114.1 and 104.4 and 107.6
[4]; [(+)-SJ733] 5000 nM, MEAN
  Final [Na+]cyt reached: 111.0
[4]; [10]
  Final [Na+]cyt reached: 138.3 and 95.8 and 115.2 and 94.7
[4]; [(+)-SJ733] 10000 nM, MEAN
  Final [Na+]cyt reached: 115.2
[4]; [11]
  Final [Na+]cyt reached: 139.1 and 108.5 and 119.1 and 94.2
[4]; [(+)-SJ733] 20000 nM, MEAN
  Final [Na+]cyt reached: 108.1
[4]; [(+)-SJ733] 20000 nM, single experiments
  Final [Na+]cyt reached: 139.5 and 98.0 and 111.1 and 84.0
[4]; DD2, 1.5 h, pH 7.1, Dd2-Polδ, ~90 min exposure, 37 °C, pH 7.1, mean ± SEM, read-out: IC50 for Na+ dysregulation
  IC50: 55 ± 15 nM
[4]; DD2, Dd2-Polδ, MEAN, source data of Table 1 (nM there), read-out: IC50 for Na+ dysregulation, MEAN
  IC50: 55 nM
[4]; vs cipargamin, [Na+]cyt assays (P. falciparum, T. gondii) and P. falciparum proliferation assays
  difference in potency between the drugs: > 6 fold
[5]; [(+)-SJ733] 9.8 nM, MEAN
  Final [Na+]cyt reached: 28.4
[5]; [(+)-SJ733] 9.8 nM, single experiments
  Final [Na+]cyt reached: 25.4 and 25.6 and 34.3
[5]; [(+)-SJ733] 19.5 nM, MEAN
  Final [Na+]cyt reached: 28.2
[5]; [(+)-SJ733] 19.5 nM, single experiments
  Final [Na+]cyt reached: 24.8 and 26.3 and 33.5
[5]; [(+)-SJ733] 39.1 nM, MEAN
  Final [Na+]cyt reached: 28.7
[5]; [(+)-SJ733] 39.1 nM, single experiments
  Final [Na+]cyt reached: 26.5 and 26.8 and 32.9
[5]; [(+)-SJ733] 78.1 nM, MEAN
  Final [Na+]cyt reached: 29.0
[5]; [(+)-SJ733] 78.1 nM, single experiments
  Final [Na+]cyt reached: 26.6 and 27.0 and 33.4
[5]; [(+)-SJ733] 156.3 nM, MEAN
  Final [Na+]cyt reached: 28.6
[5]; [6]
  Final [Na+]cyt reached: 25.8 and 27.2 and 32.8
[5]; [(+)-SJ733] 312.5 nM, MEAN
  Final [Na+]cyt reached: 25.7
[5]; [7]
  Final [Na+]cyt reached: 25.5 and 26.1 and 32.5 and 18.8
[5]; [(+)-SJ733] 625 nM, MEAN
  Final [Na+]cyt reached: 26.8
[5]; [8]
  Final [Na+]cyt reached: 26.0 and 26.8 and 34.1 and 20.2
[5]; [(+)-SJ733] 2500 nM, MEAN
  Final [Na+]cyt reached: 28.2
[5]; [9]
  Final [Na+]cyt reached: 27.1 and 27.5 and 36.9 and 21.3
[5]; [(+)-SJ733] 5000 nM, MEAN
  Final [Na+]cyt reached: 30.8
[5]; [10]
  Final [Na+]cyt reached: 29.9 and 28.6 and 41.3 and 23.6
[5]; [(+)-SJ733] 10000 nM, MEAN
  Final [Na+]cyt reached: 38.0
[5]; [11]
  Final [Na+]cyt reached: 34.4 and 33.8 and 55.9 and 28.0
[5]; [(+)-SJ733] 20000 nM, MEAN
  Final [Na+]cyt reached: 58.1
[5]; [(+)-SJ733] 40000 nM, MEAN
  Final [Na+]cyt reached: 76.7
[5]; [(+)-SJ733] 40000 nM, single experiments
  Final [Na+]cyt reached: 88.7 and 92.6 and 48.8
